Results on 14 compounds are retold here after patent US20240298639A1 (priority 2021, published 2024).

Common to all, as to assay type: cell-based
In experiment [1] the test system is wheat scab fungi (Fusarium graminearum and Fusarium asiaticum). Nature of the experiment: organism not typed. To be noted: for inhibition at 0.125 µg/mL / inhibition at 0.25 µg/mL / inhibition at 0.5 µg/mL: read-out: Mycelial growth inhibition rate (MGIR); for inhibition at 0.5 µg/mL: 0.5 mg/L.
Experiment [2] deals with melon Fusarium wilt pathogen (Fusarium oxysporum). Put plainly: microbe, parasite or virus in culture. To be noted: 1 mg/L; for inhibition at 1 µg/mL: Fusarium, read-out: Mycelial growth inhibition rate.
Experiment [3] deals with rice bakanae disease pathogen (Fusarium moniliforme). Put plainly: microbe, parasite or virus in culture. As to conditions: 1 mg/L; for inhibition at 1 µg/mL: Fusarium verticillioides, read-out: Mycelial growth inhibition rate.
Experiment [4] concerns banana Fusarium wilt pathogen (Fusarium oxysporum). Put plainly: microbe, parasite or virus in culture. To be noted: 1 mg/L; for inhibition at 1 µg/mL: Fusarium, read-out: Mycelial growth inhibition rate.

Consider `CCN(CC)c1ccc(/C(N)=C(\C#N)C(=O)OC)cc1` [Compound 28], for which the inhibition at 0.125 µg/mL in experiment [1] (0.125 mg/L) was 74.4 ± 3.8%. Also, in experiment [1] (0.25 mg/L), the inhibition at 0.25 µg/mL was found to be 85.3 ± 3.3%. In experiment [1], the inhibition at 0.5 µg/mL is more than 90%.

With `CCOC(=O)/C(C#N)=C(\N)c1ccc(NC)cc1` [Compound 2], the inhibition at 1 µg/mL in experiment [2], in experiment [3] and in experiment [4] was more than 90% each time. Besides, the inhibition at 0.125 µg/mL in experiment [1] (0.125 mg/L) is more than 90%. Moreover, the inhibition at 0.25 µg/mL in experiment [1] (0.25 mg/L) was more than 90%. The inhibition at 0.5 µg/mL in experiment [1] is more than 90%.

For `CCOC(=O)/C(C#N)=C(\N)c1ccc(N2CCC2)cc1` [Compound 15], the inhibition at 0.125 µg/mL in experiment [1] (0.125 mg/L) was 84.2 ± 4.5%. Further, in experiment [1] (0.25 mg/L), the inhibition at 0.25 µg/mL is more than 90%. Besides, the inhibition at 0.5 µg/mL in experiment [1] was more than 90%.

For `CCCOC(=O)/C(C#N)=C(\N)c1ccc(N(C)C)cc1` [Compound 36], in experiment [1] (0.125 mg/L), the inhibition at 0.125 µg/mL was found to be 75.2 ± 3.3%. In addition, the inhibition at 0.25 µg/mL in experiment [1] (0.25 mg/L) was determined as 85.4 ± 3.9%. Further, the inhibition at 0.5 µg/mL in experiment [1] was more than 90%.

phenamacril [reference compound]: the “Mycelial growth inhibition rate” value in experiment [2], in experiment [3] and in experiment [4] was 25% each time. The “Mycelial growth inhibition rate (MGIR)” value came out at 21.1 ± 2.3% in experiment [1] (0.125 mg/L) and 36.1 ± 5.0% in experiment [1] (0.25 mg/L).

For `CCOC(=O)/C(C#N)=C(\N)c1ccc(N(CC)CC)cc1` [Compound 11], the inhibition at 1 µg/mL in experiment [2], in experiment [3] and in experiment [4] was more than 90% in each case. The inhibition at 0.125 µg/mL in experiment [1] (0.125 mg/L) was more than 90%. The inhibition at 0.25 µg/mL in experiment [1] (0.25 mg/L) is more than 90%. In experiment [1], the inhibition at 0.5 µg/mL was more than 90%.

On to `CCOC(=O)/C(C#N)=C(\N)c1ccc(N(C)CC)cc1` [Compound 8], for which the inhibition at 0.125 µg/mL in experiment [1] (0.125 mg/L) turned out to be 88.3 ± 4.5%. Moreover, the inhibition at 0.25 µg/mL in experiment [1] (0.25 mg/L) was more than 90%. For the same compound, the inhibition at 0.5 µg/mL in experiment [1] was more than 90%.

On to `CCCOC(=O)/C(C#N)=C(\N)c1ccc(N(CC)CC)cc1` [Compound 37], for which the inhibition at 0.125 µg/mL in experiment [1] (0.125 mg/L) was found to be 73.9 ± 5.5%. Further, the inhibition at 0.25 µg/mL in experiment [1] (0.25 mg/L) came to 84.8 ± 7.1%. For the same compound, the inhibition at 0.5 µg/mL in experiment [1] was more than 90%.

For the compound `CCNc1ccc(/C(N)=C(\C#N)C(=O)OCC)cc1` [Compound 3], the inhibition at 1 µg/mL in experiment [2], in experiment [3] and in experiment [4] was more than 90% in each case. The inhibition at 0.125 µg/mL in experiment [1] (0.125 mg/L) is more than 90%. In addition, the inhibition at 0.25 µg/mL in experiment [1] (0.25 mg/L) is more than 90%. Further, the inhibition at 0.5 µg/mL in experiment [1] was more than 90%.

As for `CCOC(=O)/C(C#N)=C(\N)c1ccc(N2CCCC2)cc1` [Compound 16], the inhibition at 0.125 µg/mL in experiment [1] (0.125 mg/L) was found to be 82.3 ± 2.5%. The inhibition at 0.25 µg/mL in experiment [1] (0.25 mg/L) was more than 90%. Also, in experiment [1], the inhibition at 0.5 µg/mL is more than 90%.

In the case of `CCOC(=O)/C(C#N)=C(\N)c1ccc(N)cc1` [Compound 1], the inhibition at 0.125 µg/mL in experiment [1] (0.125 mg/L) was 65.5 ± 4.3%. Further, in experiment [1] (0.25 mg/L), the inhibition at 0.25 µg/mL amounted to 81.2 ± 6.3%. The inhibition at 0.5 µg/mL in experiment [1] is more than 90%.

As to `CCOC(=O)/C(C#N)=C(\N)c1ccc(N2CCCCC2)cc1` [Compound 17], in experiment [1] (0.125 mg/L), the inhibition at 0.125 µg/mL came out at 81.4 ± 5.5%. Moreover, the inhibition at 0.25 µg/mL in experiment [1] (0.25 mg/L) is more than 90%. In addition, the inhibition at 0.5 µg/mL in experiment [1] is more than 90%.

Consider `CCCOC(=O)/C(C#N)=C(\N)c1ccc(NC)cc1` [Compound 34], for which, in experiment [1] (0.125 mg/L), the inhibition at 0.125 µg/mL was 74.1 ± 2.3%. In addition, in experiment [1] (0.25 mg/L), the inhibition at 0.25 µg/mL came out at 84.9 ± 5.4%. In addition, in experiment [1], the inhibition at 0.5 µg/mL was more than 90%.

With `CCCOC(=O)/C(C#N)=C(\N)c1ccc(NCC)cc1` [Compound 35], the inhibition at 0.125 µg/mL in experiment [1] (0.125 mg/L) amounted to 76.6 ± 3.3%. The inhibition at 0.25 µg/mL in experiment [1] (0.25 mg/L) was 85.8 ± 1.8%. For the same compound, the inhibition at 0.5 µg/mL in experiment [1] is more than 90%.
